Measured values from patent EP2322149A1, “Methods and compositions for the treatment of ischemia” (Universidad del Pais Vasco, priority 2009, dated 2011).
“Also recorded” adds a separate entry of the source. Where a name gives a salt, the structure may show the parent alone.

What was measured:
[1] = tested on: optic nerve oligodendrocytes; assay: Whole-cell recording of ischaemic inward current in cultured oligodendrocytes (chemical ischaemia); assay type: cell-based, Sprague-Dawley rats
Description: After 2-4 days in vitro, cultures were composed of at least 98% 04/Ga1C^+ cells. No microglial cells were detected in these cultures. […] Cell death was determined 24h later using calcein-AM (Invitrogen) as previously described (Matute et al., 1997 Proc Natl Acad Sci U S A 94:8830-8835.). Antagonists were present during in vitro ischaemia and during the next 24h incubation period. […] Calcein was used to quantify the number of cells within the reading field. Fluorescence was measured as above and values were plotted as the percentage of DCFDA/calcein red-orange fluorescence versus control. […] Molecular Probes). […] The changes in the membrane potential were calculated as the red (emission at 590)/green (emission at 520) ratio in each condition and results were normalized to control. Whole cell recordings were performed at room temperature and at a holding membrane potential of -70 mV. Extracellular bath solution with a pH of 7.3 contained (in mM): […] Patch clamp pipettes (3-5 MΩ) were filled with internal solution at a pH of 7.3 containing (in mM): CsCI 140, CaC12 2, MgC12 2, HEPES 10, EGTA 11, Na-ATP 2. For electrophysiology monitoring, ischaemia was induced chemically by using the glycolytic blocker iodoacetate (1 mM) and the oxidative phosphorylation inhibitor antimycin (2.5 μM), and omitting glucose because recordings were performed in an open chamber where O2 can diffuse to the cells (Káradóttir et al., 2005). Recordings of ATP currents were performed in divalent cation-free extracellular solutions, obtained by omitting Ca^2+ and Mg^2+, to potentiate P2X-mediated responses (Matute et al., 1997 Proc Natl Acad Sci U S A 94:8830-8835.). […] Molecular Probes, Inc., Eugene, OR) in culture medium for 30 min at 37 °C. Experiments were carried out in a coverslip chamber continuously perfused with a buffer containing 20 mM HEPES, 2 mM CaC12, 10 mM glucose in HBSS at 1 ml/min. The perfusion chamber was mounted on the stage of a Zeiss inverted epifluorescence microscope (Axiovert 35), equipped with a 150 W xenon lamp Polychrome IV (TILL Photonics GMBH) and a Plan Neofluar 40x oil immersion objective (Zeiss, Germany). Cells were visualized with a high resolution digital B/W CCD camera (ORCA; Hamamatsu Photonics Iberica, Barcelona, Spain) and image acquisition and data analysis were carried out using the AquaCosmos software program (Hamamatsu Photonics Iberica). Images were acquired every 30 ms at 37°C and ischaemia was induced as above. […] At the end of the assay, in situ calibration was carried out with the successive addition of […] and 2M Tris/50 mM EGTA, pH 8.5. Data were analyzed with Excel and Prism software.

[2] = tested on: optic nerve oligodendrocytes; assay: Ca2+ imaging (fura-2) of oligodendrocytes during chemical ischaemia; assay type: cell-based, Sprague-Dawley rats; details: chemical ischaemia; PPADS 100 µM, oATP 1 mM
Description: After 2-4 days in vitro, cultures were composed of at least 98% 04/Ga1C^+ cells. No microglial cells were detected in these cultures. […] Cell death was determined 24h later using calcein-AM (Invitrogen) as previously described (Matute et al., 1997 Proc Natl Acad Sci U S A 94:8830-8835.). Antagonists were present during in vitro ischaemia and during the next 24h incubation period. […] Calcein was used to quantify the number of cells within the reading field. Fluorescence was measured as above and values were plotted as the percentage of DCFDA/calcein red-orange fluorescence versus control. […] Molecular Probes). […] The changes in the membrane potential were calculated as the red (emission at 590)/green (emission at 520) ratio in each condition and results were normalized to control. Whole cell recordings were performed at room temperature and at a holding membrane potential of -70 mV. Extracellular bath solution with a pH of 7.3 contained (in mM): […] Patch clamp pipettes (3-5 MΩ) were filled with internal solution at a pH of 7.3 containing (in mM): CsCI 140, CaC12 2, MgC12 2, HEPES 10, EGTA 11, Na-ATP 2. […] Data were analyzed with Excel and Prism software.

[3] = tested on: optic nerve oligodendrocytes; assay: Reactive oxygen species (DCFDA) after OGD in oligodendrocyte cultures; assay type: cell-based, Sprague-Dawley rats; details: 1 h OGD; BBG 50 nM, PPADS 100 µM
Description: (§1) Primary cultures of oligodendrocytes derived from optic nerves of 12 day-old Sprague-Dawley rats were obtained as previously described (Matute et al., 1997 Proc Natl Acad Sci U S A 94:8830-8835.).Cells were maintained at 37°C and 5% CO2 in a chemically defined medium (Matute et al., 1997 Proc Natl Acad Sci U S A 94:8830-8835.). After 2-4 days in vitro, cultures were composed of at least 98% 04/Ga1C^+ cells. No microglial cells were detected in these cultures. […] Cell death was determined 24h later using calcein-AM (Invitrogen) as previously described (Matute et al., 1997 Proc Natl Acad Sci U S A 94:8830-8835.). Antagonists were present during in vitro ischaemia and during the next 24h incubation period. […] Calcein was used to quantify the number of cells within the reading field. Fluorescence was measured as above and values were plotted as the percentage of DCFDA/calcein red-orange fluorescence versus control. The changes in mitochondrial membrane potential were monitored with 5,5',6,6'-tetrachloro-1,1',3,3'-tetraethylbenzimidazolcarbocyanine iodide (JC-1; Molecular Probes). […] The changes in the membrane potential were calculated as the red (emission at 590)/green (emission at 520) ratio in each condition and results were normalized to control.

[4] = tested on: optic nerve oligodendrocytes; assay: Mitochondrial membrane potential (JC-1) after OGD in oligodendrocyte cultures; assay type: cell-based, Sprague-Dawley rats; details: 1 h OGD; BBG 50 nM, PPADS 100 µM
Description: as §1

[5] = tested on: optic nerve oligodendrocytes; assay: Oxygen and glucose deprivation (OGD) cell death in oligodendrocyte cultures (calcein-AM); assay type: cell-based, Sprague-Dawley rats; details: 1h OGD, calcein 24h later; PPADS 100 µM, BBG 50 nM, CNQX 30 µM, APV 100 µM, apyrase 20 U/ml, ARL67156 100 µM, CBX 20 µM, FFA 100 µM, MFQ 1 nM
Description: Primary cultures of oligodendrocytes derived from optic nerves of 12 day-old Sprague-Dawley rats were obtained as previously described (Matute et al., 1997 Proc Natl Acad Sci U S A 94:8830-8835.).Cells were maintained at 37°C and 5% CO2 in a chemically defined medium (Matute et al., 1997 Proc Natl Acad Sci U S A 94:8830-8835.). After 2-4 days in vitro, cultures were composed of at least 98% 04/Ga1C^+ cells. No microglial cells were detected in these cultures. […] Cell death was determined 24h later using calcein-AM (Invitrogen) as previously described (Matute et al., 1997 Proc Natl Acad Sci U S A 94:8830-8835.). Antagonists were present during in vitro ischaemia and during the next 24h incubation period. […] To assay the levels of reactive oxygen species (ROS), cells were loaded with 40 µM 2',7'- dichlorodihyfluoresceindiacetate (DCFDA; Invitrogen) and 1 µM calcein red-orange (Molecular Probes) immediately after OGD. Calcein was used to quantify the number of cells within the reading field. Fluorescence was measured as above and values were plotted as the percentage of DCFDA/calcein red-orange fluorescence versus control. The changes in mitochondrial membrane potential were monitored with 5,5',6,6'-tetrachloro-1,1',3,3'-tetraethylbenzimidazolcarbocyanine iodide (JC-1; Molecular Probes). Immediately after OGD, cells were loaded with JC-1 (3 µM) at 37°C for 30 min. The changes in the membrane potential were calculated as the red (emission at 590)/green (emission at 520) ratio in each condition and results were normalized to control.

[6] = tested on: AMPA and kainate receptors; assay: Glutamate receptor agonist (AMPA, kainate) induced oligodendrocyte death (calcein fluorescence); assay type: cell-based, Sprague-Dawley rats; details: AMPA (100 µM) + cyclothiazide (100 µM), or kainate (3 mM) + GYKI 53655 (50 µM); PPADS 100 µM, BBG 50 nM
Description: as §1

[7] = tested on: optic nerves; assay: Optic nerve ischaemia (OGD), tissue damage by LDH release; parameters: species or system rats; details: P28 rat optic nerves, 1h OGD + 2h reperfusion; PPADS 1 mM, BBG 50 nM, oATP 1 mM, apyrase 20 U/ml, MFQ 1 µM, CBX 100 µM, FFA 1 mM
Description: After 1h OGD at 37°C, the medium was replaced with fresh solution containing glucose and equilibrated with 95% O2, 5% CO2 and the nerves were incubated for another 2h at 37°C to simulate reperfusion.

[8] = target: T1, P2X1 (Homo sapiens, UniProt P51575); details: read-out: IC50 P2X1; cited from earlier work
T1 sequence (P51575 1-399): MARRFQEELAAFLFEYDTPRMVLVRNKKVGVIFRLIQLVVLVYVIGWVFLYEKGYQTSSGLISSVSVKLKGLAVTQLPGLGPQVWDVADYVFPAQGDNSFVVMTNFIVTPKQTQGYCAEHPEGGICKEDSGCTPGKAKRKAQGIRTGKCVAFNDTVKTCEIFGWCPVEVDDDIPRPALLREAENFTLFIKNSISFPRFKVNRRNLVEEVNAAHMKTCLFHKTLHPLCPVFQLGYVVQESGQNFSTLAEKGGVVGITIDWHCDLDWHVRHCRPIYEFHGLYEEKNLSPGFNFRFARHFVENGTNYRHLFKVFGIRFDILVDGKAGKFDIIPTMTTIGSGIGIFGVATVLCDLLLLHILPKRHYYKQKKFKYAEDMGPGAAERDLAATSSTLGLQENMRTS

[9] = target: P2X6 (Homo sapiens, UniProt O15547); details: read-out: IC50 P2X6; cited from earlier work
Sequence of P2X6 (O15547 whole entry, species assumed): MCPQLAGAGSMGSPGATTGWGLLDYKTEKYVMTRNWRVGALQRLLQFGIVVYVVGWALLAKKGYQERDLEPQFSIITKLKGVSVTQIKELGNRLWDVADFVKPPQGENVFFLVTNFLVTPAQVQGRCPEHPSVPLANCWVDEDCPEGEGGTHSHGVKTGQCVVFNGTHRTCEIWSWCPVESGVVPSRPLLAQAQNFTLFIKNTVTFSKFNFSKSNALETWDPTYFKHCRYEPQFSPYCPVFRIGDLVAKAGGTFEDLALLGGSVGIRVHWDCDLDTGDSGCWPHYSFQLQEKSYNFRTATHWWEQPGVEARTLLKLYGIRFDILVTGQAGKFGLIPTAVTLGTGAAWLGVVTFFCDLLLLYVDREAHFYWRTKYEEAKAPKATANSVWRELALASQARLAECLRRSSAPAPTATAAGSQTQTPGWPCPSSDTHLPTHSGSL

## Cc1nc(N=Nc2ccc(S(=O)(=O)O)cc2S(=O)(=O)O)c(COP(=O)(O)O)c(C=O)c1O [PPADS, tetrasodium salt of pyridoxalphosphate-6-azophenyl-2',4'-disulfonic acid]
[1]; after washing the antagonists out, average over BBG and PPADS, n= 15
  OGD currents after drug application versus OGD currents before drug application: 134 ± 32%
[1]; chemical ischaemia (iodoacetate, antimycin, no glucose), -70 mV, PPADS 100 µM, oATP 1 mM, BBG 50 nM
  ischaemic inward currents: significantly reduced
[2]
  increase in [Ca2+]i caused by ischaemia: significantly blocked; also recorded: significantly reduced
[3]
  generation of radical oxygen species (ROS): prevented
[4]
  mitochondrial depolarization: prevented
[5]
  OGD-induced oligodendrocyte cell death: significantly reduced
[6]
  glutamate receptor-induced oligodendrocyte death: did not significantly inhibit
[7]
  ischaemia-induced damage to optic nerves (LDH release): prevented; also recorded: reduced
[8]
  IC50: 1 to 5 µM
[9]
  IC50: > 100 µM
